# In patent publication US11879013B2, “Combination therapies with bispecific anti-EGFR/c-Met antibodies and third generation EGFR tyrosine kinase inhibitors” (Janssen Biotech, Inc., priority 2019, dated 2024):
# Experiments:
# H1975-HGF xenografts = assay: Antitumor activity in H1975-HGF human lung carcinoma xenograft model; format: in vivo, female athymic nude mice; settings: for TGI as compared to controls: Day 28, 10 mg/kg each agent, TKI po qd x 21, JNJ-372 ip biwk x 3
# [1] = Body weight and clinical signs of nude mice bearing H1975 xenografts; format: in vivo, female athymic nude mice; settings: for body weight change compared to the control group: H1975-xenograft-bearing nude mice, 10 mg/kg, JNJ-372 at Day 29, TKI-containing groups p<0.05; for day of euthanasia due to negative clinical signs / animals euthanized due to negative clinical signs: H1975 study; for animals euthanized due to negative clinical signs: n=10/group, unclear whether due to tumor burden or treatment
# Method: (§1) Female athymic nude mice were used in the studies (n=10/group). Treatment began when SC tumors reached approximately 100 to 300 mm^3 in size. and dosing was initiated according to the treatment plan summarized in Table 2. […] The control group was dosed with vehicle orally daily for 21 days, and the isotype control antibody was dosed twice a week IP for 3 weeks. Mice were monitored for body weight and tumor volume up to Day 95, and were euthanized when individual tumor volume reached 2,000 mm^3 or at study conclusion.
# (§2) Relative body weight of individual mice was calculated using the formula: (W/W0)×100, where ‘W’ represents body weight on a particular day, and ‘W0’ represents body weight at initiation of treatment. Body weight was graphically represented as mean % of initial body weight±SEM.
# Statistical significance was evaluated for all pairwise comparisons on the last day of the study when at least eight mice remained in each group. Differences between groups were considered significant when p≤0.05. Statistical significance of tumor volume and body weight was calculated using the Linear Mixed-Effects analysis in R software version 3.4.2 (using Janssen's internally developed Shiny application version 3.3), with treatment and time as fixed effects and animal as random effect. Logarithmic transformation (base 10) was performed if individual longitudinal response trajectories were not linear. The information derived from this model was used to make pairwise treatment comparisons to the control group or between all the treatment groups.
# [2] = Body weight and clinical signs of nude mice bearing H1975-HGF xenografts; format: in vivo, female athymic nude mice; settings: for body weight change compared to the control group: H1975-HGF-tumor-bearing mice, 10 mg/kg, JNJ-372 at Day 28, TKI-containing groups p<0.05; for day found dead or euthanized / mice found dead or euthanized due to negative clinical signs: H1975-HGF study; for mice found dead or euthanized due to negative clinical signs: n=10/group, unclear whether due to tumor burden or treatment
# Method: as §1, §2
# Tumor volume and body weight data were graphically represented using Prism software (GraphPad, version 7). Statistical significance was evaluated for all pairwise comparisons on the last day of the study when at least eight mice remained in each group. Differences between groups were considered significant when p≤0.05. […] Logarithmic transformation (base 10) was performed if individual longitudinal response trajectories were not linear. The information derived from this model was used to make pairwise treatment comparisons to the control group or between all the treatment groups.
# The experimental design was as described in Example 1 except that H1975 cells stably transfected to express hepatocyte growth factor (HGF) (H1975-HGF cells) were used in the studies and hereafter referred to as H1975-HGF-CNT.
# EGFR-mutated NSCLC = assay: FIH dose escalation study of lazertinib monotherapy; format: in vivo, human
# Method: The safety profile and preliminary efficacy of both agents in EGFR-mutated NSCLC population is based upon clinical experience of approximately 100 subjects in each study, including those enrolled into expansion cohorts at their respective RP2D.
# In the current monotherapy dosing regimen, lazertinib is administered as a daily oral therapy, while JNJ-61186372 is administered intravenously weekly during Cycle 1, and then every other week thereafter, beginning with Cycle 2 Day 1.
# [3] = test system: H1975 human lung xenografts; assay: Antitumor activity in H1975 human lung carcinoma xenograft model; settings: for TGI as compared to controls: Day 28, 10 mg/kg each agent, TKI po qd x 21, JNJ-372 ip biwk x 3
# Method: The animals were fed ad libitum water (reverse osmosis, 1 ppm Cl) and NIH 31 Modified and Irradiated Lab Diet® consisting of 18.0% crude protein, 5.0% crude fat, and 5.0% crude fiber. The mice were housed on irradiated Enrich-o'Cobs™ Laboratory Animal Bedding in static microisolators on a 12-hour light cycle at 20-22° C. (68-72° F.) and at 40-60% humidity. All studies complied with the recommendations of the Guide for Care and Use of Laboratory Animals with respect to restraint, husbandry, surgical procedures, feed and fluid regulation, and veterinary care.
# NCI-H1975 cells were grown to mid-log phase in RPMI 1640 medium containing 10% fetal bovine serum, 2 mM glutamine, 100 units/mL sodium penicillin G, 25 μg/mL gentamicin, and 100 μg/mL streptomycin sulfate. The tumor cells were cultured in tissue culture flasks in a humidified incubator at 37° C., in an atmosphere of 5% CO2 and 95% air.
# On the day of implant, the NCI-H1975 cells were harvested during log phase growth and resuspended in phosphate buffered saline (PBS) at a concentration of 5×10^7 cells/mL. Xenografts were initiated by subcutaneously implanting 5×10^6 NCI-H1975 cells per animal (0.1 mL suspension) into the right flank of each test animal and tumors were monitored as their volumes approached the target range of 150-200 mm^3. Fifteen days later, animals were sorted into bins by calculated tumor volumes based on vernier caliper measurements of tumor width and length to the nearest mm. The animals were then heuristically sorted among treatment groups, balancing the distribution of small to large sized tumor volumes among group assignments. […] Tumor size, in mm3, was calculated using the following formula: Tumor Volume=(w^2×l)/2 where w=width and l=length, in mm, of the tumor. […]
# Female athymic nude mice were used in the studies (n=10/group). […] Mice were monitored for body weight and tumor volume up to Day 95, and were euthanized when individual tumor volume reached 2,000 mm^3 or at study conclusion.
# Tumor volume data were graphically represented as the mean tumor volume±SEM. Tumor volume was calculated using the formula: tumor volume (mm^3)=(D×d2)/2; where ‘D’ represents the larger diameter, and ‘d’ the smaller diameter of the tumor as determined by caliper measurements.
# The % TGI was defined as the difference between mean tumor burden of the treated and control group, calculated as % ΔTGI=([(TVc−TVc0)−(TVt−TVt0)]/(TVc−TVc0))×100 where ‘TVc’ is the mean tumor burden of a given control group, ‘TVc0’ is the mean initial tumor burden of a given control group, ‘TVt’ is the mean tumor burden of the treated group, and ‘TVt0’ is the mean initial tumor burden of the treated group.
# mouse EGFR = mouse EGFR (Mus musculus, UniProt Q01279); assay: Binding of JNJ-372 to mouse EGFR
# mouse c-Met = mouse c-Met (Mus musculus, UniProt P16056); assay: Binding of JNJ-372 to mouse c-Met
# [4] = n=10/group, 10 mg/kg each agent
# mouse c-Met, sequence (P16056 25-1379): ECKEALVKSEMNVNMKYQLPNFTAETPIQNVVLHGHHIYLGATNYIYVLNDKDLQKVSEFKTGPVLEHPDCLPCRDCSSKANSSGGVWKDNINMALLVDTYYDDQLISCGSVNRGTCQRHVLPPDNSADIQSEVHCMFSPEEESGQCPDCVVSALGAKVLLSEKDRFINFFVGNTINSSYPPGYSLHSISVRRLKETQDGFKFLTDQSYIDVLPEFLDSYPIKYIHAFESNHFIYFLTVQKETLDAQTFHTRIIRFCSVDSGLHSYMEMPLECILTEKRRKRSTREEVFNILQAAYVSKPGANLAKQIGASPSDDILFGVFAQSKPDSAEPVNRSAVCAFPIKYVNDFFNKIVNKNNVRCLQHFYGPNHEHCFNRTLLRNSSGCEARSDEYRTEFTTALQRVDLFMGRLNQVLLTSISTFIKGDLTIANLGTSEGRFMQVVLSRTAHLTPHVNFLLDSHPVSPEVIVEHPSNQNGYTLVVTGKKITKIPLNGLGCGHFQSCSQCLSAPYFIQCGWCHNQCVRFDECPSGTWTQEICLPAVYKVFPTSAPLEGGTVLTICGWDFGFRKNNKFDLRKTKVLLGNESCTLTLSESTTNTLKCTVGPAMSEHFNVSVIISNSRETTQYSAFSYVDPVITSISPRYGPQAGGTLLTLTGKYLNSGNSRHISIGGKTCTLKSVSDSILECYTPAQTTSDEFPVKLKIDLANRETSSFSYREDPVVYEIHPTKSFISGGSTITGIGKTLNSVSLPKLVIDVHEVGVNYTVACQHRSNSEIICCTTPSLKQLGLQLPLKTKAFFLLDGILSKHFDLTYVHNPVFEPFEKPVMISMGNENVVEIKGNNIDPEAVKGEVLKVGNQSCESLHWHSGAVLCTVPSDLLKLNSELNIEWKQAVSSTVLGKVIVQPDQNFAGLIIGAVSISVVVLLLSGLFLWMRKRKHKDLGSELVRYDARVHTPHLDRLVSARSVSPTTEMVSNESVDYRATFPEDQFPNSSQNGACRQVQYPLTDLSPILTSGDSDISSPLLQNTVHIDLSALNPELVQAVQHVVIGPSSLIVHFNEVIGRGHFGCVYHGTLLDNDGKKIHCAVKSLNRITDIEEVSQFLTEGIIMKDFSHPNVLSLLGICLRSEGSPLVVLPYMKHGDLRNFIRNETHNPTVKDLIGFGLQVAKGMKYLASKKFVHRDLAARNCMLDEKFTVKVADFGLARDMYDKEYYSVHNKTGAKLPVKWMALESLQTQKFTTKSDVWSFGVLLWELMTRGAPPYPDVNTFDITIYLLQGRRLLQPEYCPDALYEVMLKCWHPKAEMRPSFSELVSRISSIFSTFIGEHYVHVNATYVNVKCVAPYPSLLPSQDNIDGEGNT
Molecule,TGI as compared to controls (H1975-HGF xenografts),CRs (complete tumor regression) (H1975-HGF xenografts; [4]),body weight change compared to the control group [1],day of euthanasia due to negative clinical signs [1],animals euthanized due to negative clinical signs [1],body weight change compared to the control group [2],dose from which clinical activity in the targeted population was demonstrated (EGFR-mutated NSCLC; EGFR-mutated NSCLC),DLTs (EGFR-mutated NSCLC; through doses up to 320 mg),TGI as compared to controls [3],"CRs (complete tumor regression, tumor not measurable on last day of analysis) [3, 4]",day found dead or euthanized [2],mice found dead or euthanized due to negative clinical signs [2],binding to mouse EGFR (mouse EGFR),binding to mouse c-Met (mouse c-Met)
"C=CC(=O)Nc1cc(Nc2nccc(-n3cc(CN(C)C)c(-c4ccccc4)n3)n2)c(OC)cc1N1CCOCC1 [Lazertinib, N-(5-(4-(4-((dimethylamino)methyl)-3-phenyl-1H-pyrazol-1-yl)pyrimidin-2-ylamino)-4-methoxy-2-morpholinophenyl)acrylamide]",75%,2 of 10,some transient body weight loss,21 days,One,some transient body weight loss,240 mg,no DLTs were observed,112%,1 of 10,,,,
"C=CC(=O)Nc1cc(Nc2nccc(-c3cn(C)c4ccccc34)n2)c(OC)cc1N(C)CCN(C)C [Osimertinib, reference compound]",57%,,some transient body weight loss,,,some transient body weight loss,,,111%,,51 days,One,,
JNJ-372,70%,,did not elicit significant body weight loss,43 days,One,did not elicit significant body weight loss,,,86%,,53 days,One,does not bind,does not bind
